{
  "source": "patent US20240269096A1",
  "about": "“Rapid Onset Therapeutic Ketosis Enabled by D-BetaHydroxyButyric Acid Systems, Compounds and Methods for Sepsis Protection and Enhanced Medical Recovery” (American Ketone Therapeutics LLC, priority 2022, published 2024)",
  "key": {"[1]": {"experiment": "Blood ketone levels by Abbott blood test strip after oral free D-BHB", "type": "in vivo, human", "source_text": "FIG. 9 is a graphical illustration of D-BHB exogenous ketone blood levels. The above Abbot blood ketone meter evidenced by Abbott blood test strip depicts the rapid rise in blood ketone levels from 0.1 mmol/L (absence of ketosis) to 2.7 mmol/L (ketosis) after oral bolus administration of 15 grams of bioidentical free D-BetaHydroxyButyric Acid. The ketone levels depicted are attained in the absence of a salt as well as without ester bonds. It is the free acid D-BHB exogenously administered which is bio-identical to the endogenous D-BHB free acid generated by the human body. The bioidentical ketone body D-BHB is first and foremost an energy source, which is directly and preferentially metabolized by the brain. D-BHB is also active as a signaling mechanism and neuro-inflammation reduction agent, resulting in broad and beneficial brain bioenergy related benefits.\nFIG. 10 is a graphical illustration of D-BHB exogenous ketone blood levels. FIG. 10 details rapid ketosis within 45 minutes confirmed by Abbott blood test strip after 10 g D-BHB with palatability agent administered by oral drink. Blood ketone levels document rise from 0.2 mmol/L to 1.8 mmol/L and 0.6 mmol/L to 1.9 mmol/L in a variety of test subjects. FIG. 10 reinforces the fact that supplementation by utilizing free D only BetaHydroxyButyric Acid without ketone salt or ketone ester is a reliable, reproduceable method and system for rapid ketone level increase for stroke recovery and maintenance. While amounts of free D only BetaHydroxyButyric Acid taken for stroke effects may vary, it is an anticipated preferred embodiment that levels between 5 and 30 grams of D only BetaHydroxyButyric Acid are taken as needed for optimum recovery. Alternate embodiments may include lower or higher amounts, however, experimental evidence has confirmed optimal administration in this range for a wide variety of other applications."}, "[2]": {"experiment": "Continuous glucose monitoring (Abbot Libre CGM) with carbohydrate challenge", "type": "in vivo", "details": "10 g administered 45 minutes before 50 g carbohydrate ingestion; versus unsupplemented ingestion", "source_text": "FIG. 11 is a graphical illustration of continuous monitoring of body glucose levels. FIG. 11 depicts continuous glucose monitoring levels with carbohydrate challenge documented by Abbot Libre Continuous Glucose Monitoring (CGM) device. In this illustrative embodiment, glucose levels from a 50 g carbohydrate ingestion are depicted unaided by free D-BetaHydroxyButyric Acid on the left and repeated the following day with two 50 g carbohydrate ingestions accompanied by 10 g free D-BetaHydroxyButyric Acid administered 45 minutes before the carbohydrate insult. […] As free D-BetaHydroxyButyric Acid can lower glucose while rapidly increasing ketone levels, it is believed that obtaining high ketones while lowering glucose will yield additional stroke recovery benefits for high glucose sensitive individuals suffering from sepsis and may be considered in lieu of insulin administration."}, "[3]": {"experiment": "Continuous Ketone Meter (CKM) monitoring of body ketone levels and deep sleep", "type": "in vivo", "details": "5 grams consumed 45 minutes prior to bedtime", "source_text": "FIG. 12 is a graphical illustration of continuous monitoring of body ketone levels resulting in improved deep sleep time due to enhanced D-BHB levels according to the claimed invention. It is noteworthy that consumption of even small amounts of free D-BetaHydroxyButyric Acid can give rise to therapeutic ketosis levels as measured by Continuous Ketone Meter (CKM). […] While free D-BetaHydroxyButyric Acid is not a sedative, even small amounts can greatly improve deep sleep quantity and quality. It is an intended and foreseeable embodiment application to increase deep sleep with free D-BetaHydroxyButyric Acid with the aim of guarding against sepsis, improving hospital recovery and enhanced resiliency."}, "[4]": {"details": "compared with ketone salts; FIG. 5 literature data; cited from earlier work"}, "[5]": {"tested_on": "LPS-induced myocardial injury and cardiac dysfunction", "details": "mouse model; study utilized the synthetic ketone ester; cited from earlier work"}, "[6]": {"biological_target": "T1, NLRP3 inflammasome (Homo sapiens, UniProt Q96P20)", "T1 construct": "host or cells: macrophages", "T1 sequence (Q96P20 whole entry)": "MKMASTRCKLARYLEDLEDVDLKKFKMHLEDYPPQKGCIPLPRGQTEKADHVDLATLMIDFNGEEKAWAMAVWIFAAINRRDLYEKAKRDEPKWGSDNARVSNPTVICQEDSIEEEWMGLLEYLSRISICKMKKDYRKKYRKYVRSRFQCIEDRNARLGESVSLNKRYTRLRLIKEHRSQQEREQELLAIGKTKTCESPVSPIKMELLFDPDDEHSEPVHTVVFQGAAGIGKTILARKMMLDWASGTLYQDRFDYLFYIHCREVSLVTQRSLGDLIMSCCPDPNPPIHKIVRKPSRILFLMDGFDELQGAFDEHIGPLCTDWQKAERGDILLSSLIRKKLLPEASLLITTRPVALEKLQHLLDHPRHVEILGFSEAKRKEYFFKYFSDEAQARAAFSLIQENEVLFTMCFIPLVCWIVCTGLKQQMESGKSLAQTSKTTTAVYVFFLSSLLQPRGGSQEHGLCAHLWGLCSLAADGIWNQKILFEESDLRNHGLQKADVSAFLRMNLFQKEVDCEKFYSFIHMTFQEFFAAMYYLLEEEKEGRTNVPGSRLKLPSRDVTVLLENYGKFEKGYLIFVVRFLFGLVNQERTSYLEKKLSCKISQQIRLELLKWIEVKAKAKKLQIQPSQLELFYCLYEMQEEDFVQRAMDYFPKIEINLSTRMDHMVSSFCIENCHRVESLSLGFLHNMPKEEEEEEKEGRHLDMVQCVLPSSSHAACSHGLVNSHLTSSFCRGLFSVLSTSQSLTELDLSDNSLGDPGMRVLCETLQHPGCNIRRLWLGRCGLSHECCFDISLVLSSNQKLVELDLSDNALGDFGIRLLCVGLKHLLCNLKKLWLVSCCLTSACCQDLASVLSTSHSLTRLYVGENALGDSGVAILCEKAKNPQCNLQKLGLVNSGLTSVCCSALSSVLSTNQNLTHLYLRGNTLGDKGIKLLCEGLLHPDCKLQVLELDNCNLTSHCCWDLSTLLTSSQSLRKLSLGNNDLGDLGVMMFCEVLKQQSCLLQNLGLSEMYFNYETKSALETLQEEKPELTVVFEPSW", "details": "independently of GPR109A binding or mitochondrial oxidation; cited from earlier work"}},
  "note": "“And” between values parts separate entries of the source, which are not always exact repeats. Equal values may be shown once.",
  "data": [
    {"smiles": "C[C@@H](O)CC(=O)O", "note": "[D-BHB, D-β-HydroxyButyric Acid]", "values": [
      {"measurement": "time to ketosis", "setting": "[1]; 10 g with palatability agent by oral drink", "result": "≤ 45", "unit": "min"},
      {"measurement": "blood ketone levels after administration", "setting": "[1]; 10 g with palatability agent by oral drink, within 45 minutes, rise from 0.2 and 0.6 mmol/L respectively, different test subjects", "result": "1.8 mmol/L and 1.9 mmol/L"},
      {"measurement": "blood ketone levels after administration", "setting": "[1]; oral bolus of 15 grams, rise from 0.1 mmol/L (absence of ketosis)", "result": 2.7, "unit": "mmol/L"},
      {"measurement": "glucose spike after carbohydrate ingestion", "setting": "[2]", "result": "the rapid glucose spike depicted in the unsupplemented ingestion is not found"},
      {"measurement": "increase in ketone level (CKM)", "setting": "[3]", "result": 1.5, "unit": "mmol/L"},
      {"measurement": "quantity of deep sleep", "setting": "[3]", "result": "enhance the quantity of deep sleep obtained"}
    ]},
    {"smiles": "C[C@@H](O)CCOC(=O)C[C@@H](C)O", "note": "[ketone ester, (R)-3-hydroxybutyl (R)-3-hydroxybutyrate]", "values": [
      {"measurement": "ketone level response", "setting": "[4]", "result": "higher ketone level response"}
    ]},
    {"smiles": "CC(O)CC(=O)O", "note": "(stereo not drawn) [β-OHB, β-Hydroxybutyrate]", "values": [
      {"measurement": "effect on LPS-induced myocardial injury and cardiac dysfunction", "setting": "[5]", "result": "prevent LPS-induced myocardial injury and cardiac dysfunction"},
      {"measurement": "effect on NLRP3 inflammasome in macrophages", "setting": "[6]", "result": "inhibits the NLRP3 inflammasome"}
    ]}
  ]
}
